From patent US11142546B2, “Neuropeptide S receptor (NPSR) agonists” (Research Triangle Institute, priority 2016, dated 2021)

These compounds were tested against T1, human NPS receptor variants (NPS Ile107 and Asn107) (Homo sapiens, UniProt Q6W5P4) (assay: Functional determination of EC50 by calcium mobilization in RD-HGA16 CHO cells overexpressing the NPS receptor). Details: FlexStation, mean of at least three independent experiments, receptor variant not given.
T1 sequence (Q6W5P4 1-371 N107I): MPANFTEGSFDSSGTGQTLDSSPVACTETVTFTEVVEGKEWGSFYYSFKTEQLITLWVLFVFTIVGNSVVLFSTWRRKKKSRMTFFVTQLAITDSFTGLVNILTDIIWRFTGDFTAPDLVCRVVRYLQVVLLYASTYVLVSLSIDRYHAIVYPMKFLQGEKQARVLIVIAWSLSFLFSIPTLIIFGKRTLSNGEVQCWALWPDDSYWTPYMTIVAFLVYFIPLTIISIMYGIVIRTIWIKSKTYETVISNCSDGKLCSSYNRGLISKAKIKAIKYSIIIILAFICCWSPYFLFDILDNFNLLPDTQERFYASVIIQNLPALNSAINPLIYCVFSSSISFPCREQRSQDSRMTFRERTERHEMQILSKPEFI
Type: cell-based
Description: Functional Determinations of EC50: Identification of functional agonists at the NPS receptor was done utilizing RD-HGA16 cells (Molecular Devices), a Chinese Hamster Ovary cell line stably expressing the promiscuous Gq-protein Gα16. RD-HGA16 cells were engineered to stably overexpress the NPS receptor. Two individual cell lines were created that stably express one of two human NPS receptor variants (NPS Ile107 and Asn107). Cells were loaded with a calcium sensitive dye (Molecular Devices) for 1 h at 370 C and compounds were assayed in separate experiments for intrinsic activity as measured by increased fluorescence intensity as a marker of mobilization of internal calcium stores using a FlexStation fluorescence plate reader. Compounds were run as 8-point full log or half log concentration curves in duplicate in order to determine the EC50 of the test compound. Each compound was tested in at least three independent experiments. A three-parameter logistic equation was fit to the concentration response data with Prism Software (v5 for Windows, GraphPad Software; San Diego, Calif.) to calculate the EC50 values. The data represent the mean±SEM from at least three independent experiments. Table 1 lists the EC50 for certain compounds of Formula I or Formula II.

Going from `NC(=O)[C@H]1CCCC[C@@H]1NC(=O)CNC(=O)/C=C/c1ccccc1` (racemic) [Compound R06039-655, (1R/S,2S/R)-2-(2-cinnamamidoacetamido)cyclohexanecarboxamide] to `NC(=O)[C@@H]1CCCC[C@H]1NC(=O)CNC(=O)/C(=C/c1ccccc1)CCc1ccccc1` (relative stereo) [Compound R06039-675, Trans-2-(2-((E)-2-Benzylidene-4-phenylbutanamido)acetamido)cyclohexanecarboxamide], the EC50 falls from 2110 nM to 213 nM (9.9-fold).

Going from `NC(=O)[C@H]1CCCC[C@@H]1NC(=O)CNC(=O)C(Cc1ccccc1)Cc1ccccc1` (racemic) [Compound R06039-656, (1R/S,2S/R)-2-(2-(2-benzyl-3-phenylpropanamido)acetamido)cyclohexanecarboxamide] to `NC(=O)[C@@H]1CCCC[C@H]1NC(=O)CNC(=O)[C@H](Cc1ccccc1)OCc1ccccc1` [Compound R06039-641, Trans-2-(2-((S)-2-(benzyloxy)-3-phenylpropanamido)acetamido)cyclohexanecarboxamide], the EC50 falls from 1020 nM to 169 nM (6-fold).

`NC(=O)[C@@H]1CCCC[C@H]1NC(=O)CNC(=O)C(CCC1CCCCC1)Cc1ccccc1` (relative stereo) [Compound R06039-682, Trans-2-(2-(2-Benzyl-4-cyclohexylbutanamido)acetamido)cyclohexanecarboxamide] and `NC(=O)[C@H]1CCCC[C@@H]1NC(=O)CNC(=O)C(Cc1ccccc1)c1ccccc1` (some centres unmarked) [Compound R06039-657, (1R/S,2S/R)-2-(2-(2,3-diphenylpropanamido)acetamido)cyclohexanecarboxamide] are within 1.5-fold of each other in EC50: 894 nM for the first, 901 nM for the second.

`NC(=O)[C@H]1CCCC[C@@H]1OC(=O)CNC(=O)[C@H](Cc1ccccc1)NC(=O)c1ccccc1` [Compound R06039-636, (1S,2S)-2-carbamoylcyclohexyl-2-[(2S)-3-phenyl-2-(phenylformamido)propanamido]acetate] and `NCCCC[C@H](NC(=O)C(CCc1ccccc1)Cc1ccccc1)C(=O)NC1CCCCC1C(N)=O` (stereo partly drawn) [Compound R06039-693, 2-[(2S)-6-amino-2-(2-benzyl-4-phenylbutanamido)hexanamido]cyclohexane-1-carboxamide] are within 1.5-fold of each other in EC50: 94 nM for the first, 77 nM for the second.

`NC(=O)C1C2CCC(CC2)C1NC(=O)CNC(=O)C(CCc1ccccc1)Cc1ccccc1` (centres unmarked) [Compound R06039-691, 3-[2-(2-Benzyl-4-phenylbutanamido)acetamido]bicyclo[2.2.2]octane-2-carboxamide] and `NCCCC[C@H](NC(=O)C(CCc1ccccc1)Cc1ccccc1)C(=O)NC1C2CCC(CC2)C1C(N)=O` (stereo partly drawn) [Compound R06039-696, 3-[(2S)-6-amino-2-(2-benzyl-4-phenylbutanamido)hexanamido]bicyclo[2.2.2]octane-2-carboxamide] are within 1.5-fold of each other in EC50: 93 nM for the first, 91 nM for the second.

Each compound was assayed against T2, NPSR-C-Alt (Homo sapiens, UniProt Q6W5P4) (assay: Functional assay of NPS receptor isoforms). Details: least potent at NPSR-C-Alt.
T2 sequence (Q6W5P4 1-377 isoform Q6W5P4-4): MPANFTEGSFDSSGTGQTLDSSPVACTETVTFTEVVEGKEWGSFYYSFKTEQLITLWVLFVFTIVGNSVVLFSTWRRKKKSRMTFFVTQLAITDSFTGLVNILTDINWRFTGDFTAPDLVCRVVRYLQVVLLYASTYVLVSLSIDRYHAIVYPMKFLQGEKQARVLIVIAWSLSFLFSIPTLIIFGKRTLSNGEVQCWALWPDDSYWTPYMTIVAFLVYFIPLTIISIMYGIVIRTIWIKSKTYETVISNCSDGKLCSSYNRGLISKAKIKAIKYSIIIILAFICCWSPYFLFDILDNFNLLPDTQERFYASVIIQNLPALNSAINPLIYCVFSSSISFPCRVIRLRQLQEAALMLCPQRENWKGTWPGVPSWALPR
Type: cell-based
Procedure: The neuropeptide S receptor has at least three known isoforms including the wild type NPS Asn^107, the NPS Asn107Ile and NPS C-Alt. Since each variant could potentially have functional difference, the agonist sensitivity of each isoform was evaluated.

With “hNPS: Human neuropeptide S, 20 residue peptide with the primary sequence SFRNGVGTGMKKTSFQRAKS (SEQ ID NO: 1) (Human)” the “potency at NPSR-C-Alt, fold lower versus the 107I variant” value was 30 fold.
